Experimental data reported in paper PMC9134009 (RSC Advances, 2021).

System: human gastric cancer cell line SGC7901
Experiment: CCK-8 in vitro cytotoxicity test, SGC7901
Type: cell-based
Settings: read-out: IC50 (nM) SGC7901; CCK-8, 72 h exposure, n = 3

N.N.[Cl][Pt][Cl] [cisplatin]
IC50: 927 ± 77.6 nM
